Experimental data from US20130143894A1 (vadel Pharma Inc., priority 2010, published 2013).
Where a name gives a salt, the structure may show the parent alone.

Columns and labels:
[1] = Safety / tolerability in the relative bioavailability study; assay type: in vivo, human; conditions: oral spray doses of 10 mg, 20 mg, 30 mg and single oral dose of 25 mg (1×25 mg tablet), healthy adult subjects, under fed conditions
Protocol: Assessments include evaluation of changes in orthostatic hypotension, oral irritation, vital sign assessments, 12-lead electrocardiogram (ECG), and clinical assessments.
After dosing, the following activities were completed: • Both objective and subjective oral irritation assessments were performed immediately after dosing and at one hour after dose administration. • A fast was maintained until at least four hours after dosing. During the study confinement period, fluid consumption resumed no sooner than one hour after dose administration. […]
• Blood sample collections were obtained as per the profile. • Supine and standing blood pressure and heart rate was measured at approximately 24 hours after each dose. • All subjects were evaluated for the presence of any adverse events prior to release from the study site. • Prior to release, subjects were evaluated to ensure it was safe for them to be released from the study site. • Subjects were released from the study site at approximately 24 hours after dose administration.

[2] = cited from earlier work

Structure (SMILES) | tolerability [1] | absolute bioavailability ([2]; after oral administration (tablet)) [%] | mean steady state volume of distribution (Vss) ([2]; in vivo) [L]
CCCc1nn(C)c2c(=O)[nH]c(-c3cc(S(=O)(=O)N4CCN(C)CC4)ccc3OCC)nc12 [sildenafil citrate] | well tolerated | – | –
CCCc1nn(C)c2c(=O)[nH]c(-c3cc(S(=O)(=O)N4CCN(C)CC4)ccc3OCC)nc12 [sildenafil, 1-[[3-(6,7-dihydro-1-methyl-7-oxo-3-propyl-1H-pyrazolo[4,3-d]pyrimidin-5-yl)-4-ethoxyphenyl]sulfonyl]-4-methylpiperazine] | – | 41 | 105
